Measured values published in patent publication US6413908B1, “Agrochemical surfactant compositions” (Imperial Chemical Industries plc, priority 1997, dated 2002).

Assays:
Galium aparine [1] = experiment: Field test, triasulfuron plus adjuvants against weeds in winter wheat; format: in vivo; details: triasulfuron 25 g.ha^−1, adjuvant 0.1% by weight or none; visual, percentage of plants affected, 5 weeks after treatment
Protocol: (§1) Field tests were carried out on test plots using a completely randomised block design with 4 replicates. […] In such a situation, it is an important benefit if the herbicide can limit the growth of the weeds (inhibition) e.g. by use of an adjuvant. In this Example, the effect of adjuvants on the activity of triasulfuron against G aparine and V hederifolia growing naturally as weeds in winter wheat was examined. […] G aparine and V hederifolia were used in evaluating herbicidal activity because of their regular distribution. […] The results of the runs using no adjuvant and those for combined adjuvants and herbicide are set out in Table 1 below.

Veronica hederifolia [2] = experiment: as above; format: in vivo; details: triasulfuron 25 g.ha^−1, adjuvant 0.1% by weight or none; visual, percentage of plants affected, 5 weeks after treatment
Protocol: as §1

Veronica hederffolia = experiment: Field test, Cameo (tribenuron-methyl) plus adjuvants in winter wheat, growth reduction; format: in vivo; details: spray 0.015% tribenuron-methyl, 0.1% adjuvant in tank mix or none
Protocol: Field tests were carried out on test plots using a completely randomised block design with 4 replicates. The spray volume used was 300 I.ha^−1.
The spray solution contained 0.015% by weight tribenuronethyl and 0.1% adjuvant added to the tank mix. The effectiveness of the herbicides was assessed visually by the % growth reduction of the weeds as compared with untreated weeds.

Galium aparine [3] = details: background statement, no adjuvant; cited from earlier work
Veronica hederifolia [4] = details: background statement, no adjuvant; cited from earlier work

| Compound | Chlorosis, Galium aparine (5 weeks) (Galium aparine [1]) | Inhibition, Galium aparine (5 weeks) (Galium aparine [1]) | Necrosis, Galium aparine (5 weeks) (Galium aparine [1]) | Chlorosis, Veronica hederifolia (5 weeks) (Veronica hederifolia [2]) | Inhibition, Veronica hederifolia (5 weeks) (Veronica hederifolia [2]) | Necrosis, Veronica hederifolia (5 weeks) (Veronica hederifolia [2]) | Inhibition (%), growth reduction of the weeds as compared with untreated weeds (Veronica hederffolia) | known activity against cleavers (Galium aparine) (Galium aparine [3]) | known activity against ivy-leaved speedwell (Veronica hederifolia) (Veronica hederifolia [4]) |
| --- | --- | --- | --- | --- | --- | --- | --- | --- | --- |
| nonyl phenol 8-ethoxylate [NP8] | 30% | 40% | 10% | 40% | 60% | 30% | 33% |  |  |
| COc1nc(C)nc(NC(=O)NS(=O)(=O)c2ccccc2OCCCl)n1 [triasulfuron] | 30% | 50% | 10% | 10% | 40% | 10% |  | limited activity | limited activity |
